According to paper PMC5685509 (Journal of agricultural and food chemistry, 2017):
Counter-ions that a name gives are not always drawn.

How the values were obtained:
[1] = system: quinone reductase; experiment: in vitro quinone reductase; assay type: cell-based, murine; conditions: for CI, chemoprevention index (= IC50/CD): Hepa1c1c7 cells
[2] = system: Hepa1c1c7 cells; experiment: cytotoxicity in Hepa1c1c7 cells; assay type: cell-based, murine; conditions: Mus musculus, Hepa-1c1c7, read-out: quinone reductase (QR) induction IC50
[3] = in vitro hydroxyl radical-scavenging activity bioassay; assay type: biochemical

Row | Structure (SMILES) | CI, chemoprevention index (= IC50/CD) [1] | IC50 [2] | hydroxyl radical-scavenging activity (in words) [3] | quinone reductase-inducing activity (in words) [1]
1 | C[S@@+]([O-])CCCCN=C=S [L-sulforaphane, reference compound] | 21.7 ± 2.8 | 16.7 ± 1.9 µM | – | –
2 | O=c1c(O[C@@H]2OC[C@@H](O)[C@H](O)[C@H]2O)c(-c2ccc(O)c(O)c2)oc2cc(O)cc(O)c12 [Compound 9, quercetin 3-O-β-D-xylopyranoside] | – | > 100 µM | – | –
3 | COC(=O)CC(O)(CC(=O)OC)C(=O)O [Compound 16, 1,5-dimethyl citrate] | – | – | showed activity in neither of these two assays | showed activity in neither of these two assays
4 | O=C(O)c1cc(O)c(O)c(O)c1 [Compound 10, gallic acid] | – | 55.3 ± 7.8 µM | – | –
5 | O=c1c(O[C@@H]2O[C@@H](CO)[C@H](O)[C@H]2O)c(-c2ccc(O)c(O)c2)oc2cc(O)cc(O)c12 [Compound 8, quercetin 3-O-α-L-arabinofuranoside] | – | > 100 µM | – | –
6 | O=c1c(O[C@@H]2O[C@H](CO)[C@H](O)[C@H](O)[C@H]2O)c(-c2ccc(O)c(O)c2)oc2cc(O)cc(O)c12 [Compound 7, hyperoside] | >5.2 | > 100 µM | – | exhibited quinone reductase-inducing activity
7 | CC(=O)OCc1ccc(C=O)o1 [Compound 15, acetyloxymethylfurfural] | – | – | showed activity in neither of these two assays | showed activity in neither of these two assays
8 | O=Cc1ccc(CO)o1 [Compound 14, hydroxymethylfurfural] | – | – | – | exhibited quinone reductase-inducing activity
9 | COC(=O)c1cc(O)c(O)c(O)c1 [Compound 11, gallic acid methyl ester] | 5.8 ± 0.82 | 82.4 ± 11.9 µM | – | exhibited quinone reductase-inducing activity
10 | O=C(O)c1ccc(O)c(O)c1 [Compound 12, protocatechuic acid] | >24.4 | > 100 µM | – | exhibited quinone reductase-inducing activity
